Measurements taken from patent publication US9169232B2, “3-(5-methyl-2-oxo-l, 3-dioxol-4-yl) methyloxy-2-trans-[(4-chloro phenyl) cyclohexyl][1,4]naphthaquinone-atovaquone prodrug” (Alkem Laboratories Limited, priority 2011, dated 2015).

Key:
[1] = solubility of the prodrug compared with atovaquone; type: physicochemical
Source text: (§1) The Atovaquone prodrug compound of formula (I) of the present invention overcomes the problems associated with poor solubility and variable bioavailability of atovaquone.

[2] = in-vitro and animal study of toxicity; type: in vivo
Source text: as §1

[3] = plasma levels of atovaquone after administration of the prodrug; settings: in vivo
Source text: as §1

solubility compared with atovaquone [1]: better solubility than atovaquone | plasma levels of atovaquone compared with levels after administration of atovaquone [3]: non-variable plasma levels of atovaquone
SMILES: Cc1oc(=O)oc1COC1=C(C2CCC(c3ccc(Cl)cc3)CC2)C(=O)c2ccccc2C1=O (stereo not drawn) [compound of formula (I), 3-(5-methyl-2-oxo-1,3-dioxol-4-yl)methyloxy-2-trans-[(4-chlorophenyl)cyclohexyl][1,4]naphthaquinone]
toxicity [2]: toxicity in the acceptable range
